Measurements reported in the supplement of paper PMC5908809.

Tests used:
[1] = system: normal NK cells expanded with K562-aAPC; assay: drug sensitivity score (DSS) (DSS units); higher = more sensitive; extreme values may be limits of the assay; conditions: 72 h; IL-2 2.5 ng/mL
Procedure: (§1)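 Drug sensitivity and resistance testing on K562-aAPC-expanded normal NK cells: 5 concentrations (10-fold steps over a 10,000-fold range), 72 h at 37 °C, viability by CellTiter-Glo normalised to DMSO and benzethonium chloride controls; DSS from the fitted curve.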

[2] = system: IMC-1 (IL-2 20 ng/mL); assay: as above; conditions: 72 h
[3] = system: NKL (IL-2 2.5 ng/mL); assay: as above; conditions: 72 h
[4] = system: normal primary NK cells, pool 3 (3 donors) (IL-2 2.5 ng/mL); assay: as above; conditions: 72 h
[5] = system: NK-YS (IL-2 2.5 ng/mL); assay: as above; conditions: 72 h
[6] = system: KHYG-1 (IL-2 2.5 ng/mL); assay: as above; conditions: 72 h
[7] = system: DERL-7 (IL-2 2.5 ng/mL); assay: as above; conditions: 72 h
[8] = system: NK-92 (IL-2 2.5 ng/mL); assay: as above; conditions: 72 h
[9] = system: YT (IL-2 2.5 ng/mL); assay: as above; conditions: 72 h
[10] = system: normal primary NK cells, pool 2 (3 donors) (IL-2 2.5 ng/mL); assay: as above; conditions: 72 h
[11] = system: KAI3 (IL-2 2.5 ng/mL); assay: as above; conditions: 72 h
[12] = system: normal primary NK cells, pool 1 (3 donors), resting (IL-2 0 ng/mL); assay: as above; conditions: 72 h
[13] = system: SNK-6 (IL-2 2.5 ng/mL); assay: as above; conditions: 72 h
[14] = system: normal primary NK cells, pool 1 (3 donors) (IL-2 2.5 ng/mL); assay: as above; conditions: 72 h
[15] = system: IMC-1 (IL-2 20 ng/mL); assay: percent inhibition of viability; higher = more inhibition; conditions: 72 h
[16] = system: NKL (IL-2 2.5 ng/mL); assay: as above; conditions: 72 h
[17] = system: normal primary NK cells, pool 3 (3 donors) (IL-2 2.5 ng/mL); assay: as above; conditions: 72 h
[18] = system: NK-YS (IL-2 2.5 ng/mL); assay: as above; conditions: 72 h
[19] = system: KHYG-1 (IL-2 2.5 ng/mL); assay: as above; conditions: 72 h
[20] = system: DERL-7 (IL-2 2.5 ng/mL); assay: as above; conditions: 72 h
[21] = system: NK-92 (IL-2 2.5 ng/mL); assay: as above; conditions: 72 h
[22] = system: YT (IL-2 2.5 ng/mL); assay: as above; conditions: 72 h
[23] = system: normal primary NK cells, pool 2 (3 donors) (IL-2 2.5 ng/mL); assay: as above; conditions: 72 h
[24] = system: KAI3 (IL-2 2.5 ng/mL); assay: as above; conditions: 72 h
[25] = system: normal primary NK cells, pool 1 (3 donors), resting (IL-2 0 ng/mL); assay: as above; conditions: 72 h
[26] = system: SNK-6 (IL-2 2.5 ng/mL); assay: as above; conditions: 72 h
[27] = system: normal primary NK cells, pool 1 (3 donors) (IL-2 2.5 ng/mL); assay: as above; conditions: 72 h
[28] = system: normal NK cells expanded with K562-aAPC; assay: as above; conditions: 72 h, IL-2 2.5 ng/mL
Procedure: as §1

Cc1cn(-c2cc(NC(=O)c3ccc(C)c(Nc4nccc(-c5cccnc5)n4)c3)cc(C(F)(F)F)c2)cn1 [Nilotinib] (max concentration tested 10000 nM)
Conditions | drug sensitivity score
[1] | 2.11
[2] | 0
[3] | 6.35
[4] | 0
[5] | 1.36
[6] | 0.72
[7] | 0
[8] | 7.73
[9] | 2.28
[10] | 0
[11] | 0.95
[12] | 0
[13] | 6.76
[14] | 0

percent inhibition of viability [%]
Conditions | 1 nM | 10 nM | 100 nM | 1000 nM | 10000 nM
[15] | -4.03 | -1.9 | 2.58 | 0.7 | -38.1
[16] | -17.5 | -6.91 | -4.77 | 29.9 | 50.9
[17] | -13.2 | -5.87 | -1.78 | -9.25 | -1.3
[18] | -1.07 | -0.64 | 9.04 | 11.3 | 15.7
[19] | -0.89 | 0.67 | 11.9 | 5.38 | 17.9
[20] | -4.23 | 4.31 | -3.59 | -5.83 | -5.46
[21] | 12.4 | 5.92 | 27.1 | 23.8 | 33.9
[22] | 1.35 | 1.76 | 8.97 | 16.1 | 18.2
[23] | -15.7 | -12.8 | -10.3 | -4.04 | 1.26
[24] | -3.54 | -7.12 | 4.99 | 7.48 | 20
[25] | 7.74 | -12.7 | -5.01 | -11.6 | -17.4
[26] | 11.9 | 22.4 | 9.61 | 18.6 | 37.7
[27] | 3.44 | -14 | -6.22 | -13.6 | -12.9
[28] | -1.85 | -4.37 | -3.71 | 7.45 | 26.5
